Measurements taken from US11091478B2 (Fochon Pharmaceuticals, Ltd., priority 2017, dated 2021).
Where two headings read alike, the source gives them in different places.

Key:
RS4;11 cells = assay: Cell proliferation assay (MTS), RS4;11 cells, 72 h; assay type: cell-based
Method in brief: (§1)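 RS4;11 and DOHH2 cells at 5000 cells/well in RPMI-1640 with 10% FBS were treated with compound at 1.5–10000 nM final, nine points, at 37 °C, 5% CO2. Exposure was 72 h for RS4;11 and 120 h for DOHH2. MTS was added for 2 h, absorbance read at 490/650 nm, and IC50 calculated.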

DOHH2 cells = assay: Cell proliferation assay (MTS), DOHH2 cells, 120 h; assay type: cell-based
Method in brief: as §1

IC50 (RS4;11 cells; Homo sapiens, RS4-11, 72 h) [nM] | SMILES | IC50 (DOHH2 cells; Homo sapiens, DOHH-2, 120 h) [nM] | IC50 (RS4;11 cells) [nM] | IC50 (DOHH2 cells) [nM]
14 | CC1(C)CCC(CN2CCN(c3ccc(C(=O)NS(=O)(=O)c4cc5c(c([N+](=O)[O-])c4)N[C@H](CCN4CC(O)C4)CO5)c(Oc4cnc5[nH]ccc5c4)c3)CC2)=C(c2ccc(Cl)cc2)C1 [Example 2-34, (R)-2-((1H-pyrrolo[2,3-b]pyridin-5-yl)oxy)-4-(4-((4′-chloro-5,5-dimethyl-3,4,5,6-tetra-hydro-[1,1′-biphenyl]-2-yl)methyl)piperazin-1-yl)-N-((3-(2-(3-hydroxyazetidin-1-yl)eth-yl)-5-nitro-3,4-dihydro-2H-benzo[b][1,4]oxazin-7-yl)sulfonyl)benzamide] | 41 |  | 
5 | CC1(C)CCC(CN2CCN(c3ccc(C(=O)NS(=O)(=O)c4cc5c(c([N+](=O)[O-])c4)N[C@H](CCN4CC(C)(O)C4)CO5)c(Oc4cnc5[nH]ccc5c4)c3)CC2)=C(c2ccc(Cl)cc2)C1 [Example 2-35, (R)-2-((1H-pyrrolo[2,3-b]pyridin-5-yl)oxy)-4-(4-((4′-chloro-5,5-dimethyl-3,4,5,6-tetra-hydro-[1,1′-biphenyl]-2-yl)methyl)piperazin-1-yl)-N-((3-(2-(3-hydroxy-3-methylazetidin-1-yl)ethyl)-5-nitro-3,4-dihydro-2H-ben-zo[b][1,4]oxazin-7-yl)sulfonyl)benzamide] | 30 |  | 
7 | C[C@@H]1CN(CC[C@@H]2COc3cc(S(=O)(=O)NC(=O)c4ccc(N5CCN(CC6=C(c7ccc(Cl)cc7)CC(C)(C)CC6)CC5)cc4Oc4cnc5[nH]ccc5c4)cc([N+](=O)[O-])c3N2)CCN1C [Example 2-36, 2-((1H-pyrrolo[2,3-b]pyridin-5-yl)oxy)-4-(4-((4′-chloro-5,5-dimethyl-3,4,5,6-tetrahydro-[1,1′-biphenyl]-2-yl)methyl)piperazin-1-yl)-N-(((R)-3-(2-((R)-3,4-dimethylpiperazin-1-yl)ethyl)-5-nitro-3,4-dihydro-2H-benzo [b][1,4]oxazin-7-yl)sulfonyl)benzamide] | 33 |  | 
1 | C[C@H]1CN(CC[C@@H]2COc3cc(S(=O)(=O)NC(=O)c4ccc(N5CCN(CC6=C(c7ccc(Cl)cc7)CC(C)(C)CC6)CC5)cc4Oc4cnc5[nH]ccc5c4)cc([N+](=O)[O-])c3N2)CCN1C [Example 2-37, 2-((1H-pyrrolo[2,3-b]pyridin-5-yl)oxy)-4-(4-((4′-chloro-5,5-dimethyl-3,4,5,6-tetrahydro-[1,1′-biphenyl]-2-yl)methyl)piperazin-1-yl)-N-(((R)-3-(2-((S)-3,4-dimethylpiperazin-1-yl)ethyl)-5-nitro-3,4-dihydro-2H-benzo [b][1,4]oxazin-7-yl)sulfonyl)benzamide] | 25 |  | 
1 | CC1(C)CCC(CN2CCN(c3ccc(C(=O)NS(=O)(=O)c4cc5c(c([N+](=O)[O-])c4)N[C@H](CCN4CCN(C6COC6)CC4)CO5)c(Oc4cnc5[nH]ccc5c4)c3)CC2)=C(c2ccc(Cl)cc2)C1 [Example 2-38, (R)-2-((1H-pyrrolo[2,3-b]pyridin-5-yl)oxy)-4-(4-((4′-chloro-5,5-dimethyl-3,4,5,6-tetra-hydro-[1,1′-biphenyl]-2-yl)methyl)piperazin-1-yl)-N-((5-nitro-3-(2-(4-(oxetan-3-yl)piperazin-1-yl)ethyl)-3,4-dihydro-2H-benzo [b][1,4]oxazin-7-yl)sulfonyl)benzamide] | 27 |  | 
9 | C[C@@H]1CN(CC[C@@H]2COc3cc(S(=O)(=O)NC(=O)c4ccc(N5CCN(CC6=C(c7ccc(Cl)cc7)CC(C)(C)CC6)CC5)cc4Oc4cnc5[nH]ccc5c4)cc([N+](=O)[O-])c3N2)CCN1C1COC1 [Example 2-39, 2-((1H-pyrrolo[2,3-b]pyridin-5-yl)oxy)-4-(4-((4′-chloro-5,5-dimethyl-3,4,5,6-tetrahydro-[1,1′-biphenyl]-2-yl)methyl)piperazin-1-yl)-N-(((R)-3-(2-((R)-3-methyl-4-(oxetan-3-yl)piperazin-1-yl)ethyl)-5-nitro-3,4-dihydro-2H-benzo[b][1,4]oxazin-7-yl)sulfonyl) benzamide] | 33 |  | 
22 | C[C@H]1CN(CC[C@@H]2COc3cc(S(=O)(=O)NC(=O)c4ccc(N5CCN(CC6=C(c7ccc(Cl)cc7)CC(C)(C)CC6)CC5)cc4Oc4cnc5[nH]ccc5c4)cc([N+](=O)[O-])c3N2)CCN1C1COC1 [Example 2-40] | 36 |  | 
2 | C[C@H]1CN(CC[C@@H]2COc3cc(S(=O)(=O)NC(=O)c4ccc(N5CCN(CC6=C(c7ccc(Cl)cc7)CC(C)(C)CC6)CC5)cc4Oc4cnc5[nH]ccc5c4)cc([N+](=O)[O-])c3N2)CCO1 [Example 2-41, 2-((1H-pyrrolo[2,3-b]pyridin-5-yl)oxy)-4-(4-((4′-chloro-5,5-dimethyl-3,4,5,6-tetrahydro-[1,1′-biphenyl]-2-yl)methyl)piperazin-1-yl)-N-(((R)-3-(2-((S)-2-methylmorpholino)ethyl)-5-nitro-3,4-dihydro-2H-benzo[b][1,4]oxazin-7-yl)sulfonyl)benzamide] | 23 |  | 
6 | C[C@@H]1CN(CC[C@@H]2COc3cc(S(=O)(=O)NC(=O)c4ccc(N5CCN(CC6=C(c7ccc(Cl)cc7)CC(C)(C)CC6)CC5)cc4Oc4cnc5[nH]ccc5c4)cc([N+](=O)[O-])c3N2)CCO1 [Example 2-42, 2-((1H-pyrrolo[2,3-b]pyridin-5-yl)oxy)-4-(4-((4′-chloro-5,5-dimethyl-3,4,5,6-tetrahydro-[1,1′-biphenyl]-2-yl)methyl)piperazin-1-yl)-N-(((R)-3-(2-((R)-2-methylmorpholino)ethyl)-5-nitro-3,4-dihydro-2H-benzo[b][1,4]oxa-zin-7-yl)sulfonyl)benzamide] | 38 |  | 
 | CC1(C)CCC(CN2CCN(c3ccc(C(=O)NS(=O)(=O)c4cc5c(c([N+](=O)[O-])c4)N[C@@H](CCN=S(C)(C)=O)CO5)c(Oc4cnc5[nH]ccc5c4)c3)CC2)=C(c2ccc(Cl)cc2)C1 [Example 2-43, (S)-2-((1H-pyrrolo[2,3-b]pyridin-5-yl)oxy)-4-(4-((4′-chloro-5,5-dimethyl-3,4,5,6-tetra-hydro-[1,1′-biphenyl]-2-yl)methyl)piperazin-1-yl)-N-((3-(2-((dimethyl(oxo)-l6-sulfanyl-idene)amino)ethyl)-5-nitro-3,4-dihydro-2H-benzo[b][1,4]oxazin-7-yl)sulfonyl)benza-mide] |  | 1 | 10
46 | CC1(C)CCC(CN2CCN(c3ccc(C(=O)NS(=O)(=O)c4cc5c(c([N+](=O)[O-])c4)N[C@@H](CCN4CC(O)C4)CO5)c(Oc4cnc5[nH]ccc5c4)c3)CC2)=C(c2ccc(Cl)cc2)C1 [Example 2-44, (S)-2-((1H-pyrrolo[2,3-b]pyridin-5-yl)oxy)-4-(4-((4′-chloro-5,5-dimethyl-3,4,5,6-tetra-hydro-[1,1′-biphenyl]-2-yl)methyl)piperazin-1-yl)-N-((3-(2-(3-hydroxyazetidin-1-yl)eth-yl)-5-nitro-3,4-dihydro-2H-benzo[b][1,4]oxazin-7-yl)sulfonyl)benzamide] | 51 |  | 
12 | CC1(C)CCC(CN2CCN(c3ccc(C(=O)NS(=O)(=O)c4cc5c(c([N+](=O)[O-])c4)N[C@@H](CCN4CC(C)(O)C4)CO5)c(Oc4cnc5[nH]ccc5c4)c3)CC2)=C(c2ccc(Cl)cc2)C1 [Example 2-45, (S)-2-((1H-pyrrolo[2,3-b]pyridin-5-yl)oxy)-4-(4-((4′-chloro-5,5-dimethyl-3,4,5,6-tetra-hydro-[1,1′-biphenyl]-2-yl)methyl)piperazin-1-yl)-N-((3-(2-(3-hydroxy-3-methylazeti-din-1-yl)ethyl)-5-nitro-3,4-dihydro-2H-ben-zo[b][1,4]oxazin-7-yl)sulfonyl)benzamide] | 17 |  | 
1 | C[C@@H]1CN(CC[C@H]2COc3cc(S(=O)(=O)NC(=O)c4ccc(N5CCN(CC6=C(c7ccc(Cl)cc7)CC(C)(C)CC6)CC5)cc4Oc4cnc5[nH]ccc5c4)cc([N+](=O)[O-])c3N2)CCN1C [Example 2-46, 2-((1H-pyrrolo[2,3-b]pyridin-5-yl)oxy)-4-(4-((4′-chloro-5,5-dimethyl-3,4,5,6-tetrahydro-[1,1′-biphenyl]-2-yl)methyl)piperazin-1-yl)-N-(((S)-3-(2-((R)-3,4-dimethylpiperazin-1-yl)ethyl)-5-nitro-3,4-dihydro-2H-benzo [b][1,4]oxazin-7-yl)sulfonyl)benzamide] | 7 |  | 
22 | C[C@H]1CN(CC[C@H]2COc3cc(S(=O)(=O)NC(=O)c4ccc(N5CCN(CC6=C(c7ccc(Cl)cc7)CC(C)(C)CC6)CC5)cc4Oc4cnc5[nH]ccc5c4)cc([N+](=O)[O-])c3N2)CCN1C [Example 2-47, 2-((1H-pyrrolo[2,3-b]pyridin-5-yl)oxy)-4-(4-((4′-chloro-5,5-dimethyl-3,4,5,6-tetrahydro-[1,1′-biphenyl]-2-yl)methyl)piperazin-1-yl)-N-(((S)-3-(2-((S)-3,4-dimethylpiperazin-1-yl)ethyl)-5-nitro-3,4-dihydro-2H-benzo [b][1,4]oxazin-7-yl)sulfonyl)benzamide] | 12 |  | 
14 | CC1(C)CCC(CN2CCN(c3ccc(C(=O)NS(=O)(=O)c4cc5c(c([N+](=O)[O-])c4)N[C@@H](CCN4CCN(C6COC6)CC4)CO5)c(Oc4cnc5[nH]ccc5c4)c3)CC2)=C(c2ccc(Cl)cc2)C1 [Example 2-48, (S)-2-((1H-pyrrolo[2,3-b]pyridin-5-yl)oxy)-4-(4-((4′-chloro-5,5-dimethyl-3,4,5,6-tetra-hydro-[1,1′-biphenyl]-2-yl)methyl)piperazin-1-yl)-N-((5-nitro-3-(2-(4-(oxetan-3-yl)piper-azin-1-yl)ethyl)-3,4-dihydro-2H-benzo [b][1,4]oxazin-7-yl)sulfonyl)benzamide] | 9 |  | 
